Calls of active or inactive are those of the source.
Experiments:
[1] = viability loss in HeLa cells – cytotoxicity control for MgcRacGAP inhibitor project, dose response (AID 624300); format: functional
[2] = target: T1, Rac GTPase-activating protein 1 (Homo sapiens, UniProt Q9H0H5); assay: blockers of MgcRacGAP-driven Rac1 GTP hydrolysis – biochemical, ADP Hunter fluorescence, primary and confirmatory, confirmation (AID 624330); format: functional
T1 sequence (Q9H0H5 whole entry): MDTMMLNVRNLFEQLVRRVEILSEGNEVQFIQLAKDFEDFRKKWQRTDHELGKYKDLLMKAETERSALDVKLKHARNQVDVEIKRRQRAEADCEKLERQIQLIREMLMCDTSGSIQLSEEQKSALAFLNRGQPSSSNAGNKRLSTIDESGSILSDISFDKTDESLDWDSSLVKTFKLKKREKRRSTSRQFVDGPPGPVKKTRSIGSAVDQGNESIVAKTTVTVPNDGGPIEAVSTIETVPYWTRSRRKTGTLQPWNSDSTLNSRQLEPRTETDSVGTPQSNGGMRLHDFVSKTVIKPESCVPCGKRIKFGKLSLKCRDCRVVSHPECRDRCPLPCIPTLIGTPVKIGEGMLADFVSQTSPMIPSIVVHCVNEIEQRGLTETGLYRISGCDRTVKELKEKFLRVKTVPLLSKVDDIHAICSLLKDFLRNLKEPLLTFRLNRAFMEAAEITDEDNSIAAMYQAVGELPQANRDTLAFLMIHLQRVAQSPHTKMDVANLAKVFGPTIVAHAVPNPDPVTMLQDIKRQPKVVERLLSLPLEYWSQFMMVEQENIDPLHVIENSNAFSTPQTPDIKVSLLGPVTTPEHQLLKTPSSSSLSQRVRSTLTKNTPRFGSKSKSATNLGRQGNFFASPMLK

[3] = target: SWI/SNF-related matrix-associated actin-dependent regulator of chromatin subfamily A member 2 (Homo sapiens, UniProt P51531); assay: Luminescence-based cell-based high throughput dose response assay to identify activators of the function of SWI/SNF related, matrix associated, actin dependent regulator of chromatin, subfamily a, member 2 (SMARCA2, BRM).; format: functional
[4] = target: T2, DNA repair protein RAD52 homolog (Homo sapiens, UniProt P43351); format: functional, biochemical
T2 sequence (P43351 whole entry): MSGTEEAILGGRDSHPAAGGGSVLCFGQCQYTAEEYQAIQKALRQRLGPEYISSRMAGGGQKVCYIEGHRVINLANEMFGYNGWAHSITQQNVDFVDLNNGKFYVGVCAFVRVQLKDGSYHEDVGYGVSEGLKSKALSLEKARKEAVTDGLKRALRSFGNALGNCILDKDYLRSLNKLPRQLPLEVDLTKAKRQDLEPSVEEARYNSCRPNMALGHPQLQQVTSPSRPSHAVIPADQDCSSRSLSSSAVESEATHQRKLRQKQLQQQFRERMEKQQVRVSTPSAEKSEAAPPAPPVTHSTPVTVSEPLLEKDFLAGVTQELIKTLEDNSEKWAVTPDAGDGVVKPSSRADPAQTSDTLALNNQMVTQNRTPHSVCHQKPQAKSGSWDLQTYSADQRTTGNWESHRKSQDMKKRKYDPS

[5] = Counterscreen for activators of the function of SWI/SNF related, matrix associated, actin dependent regulator of chromatin, subfamily a, member 2 (SMARCA2, BRM): Luminescence-based cell-based high throughput dose response assay to identify non-selective compounds using the VP16 reporter assay.; format: functional
Beta-lactamase [6] = target: T3, Beta-lactamase (Pseudomonas aeruginosa, UniProt Q79MP6); assay: inhibition of IMP-1 beta-lactamase activity – biochemical, epi-absorbance, selectivity assay for VIM-2 inhibitor project, dose response (AID 1920)
Beta-lactamase [7] = target: Beta-lactamase (Salmonella choleraesuis (strain SC-B67), UniProt Q5J463); assay: Epi-absorbance-based counterscreen for selective VIM-2 inhibitors: dose response biochemical high throughput screening assay to identify inhibitors of TEM-1 serine-beta-lactamase.
Beta-lactamase [8] = target: T3, Beta-lactamase; assay: […] counterscreen for selective VIM-2 inhibitors: dose response biochemical high throughput screening assay to identify inhibitors of IMP-1 metallo-beta-lactamase.
Paired box protein Pax-8 = Paired box protein Pax-8 (Homo sapiens, UniProt Q06710); assay: PAX8 transcriptional activity inhibition in RMG-I – RMG-I cells, luciferase, cherry-pick, dose response (AID 687027); format: functional, cell-based;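 also: luciferase reporter driven by Pax8 target thyroperoxidase promoter measured by SteadyGlo luminescence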
[9] = target: 5-hydroxytryptamine receptor 2A (Mus musculus, UniProt P35363); format: functional, cell-based;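 also: CHO-K1 cells with tagged receptor and beta-arrestin; agonist potency measured as compound-induced activation of the receptor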
[10] = target: T4, Heat shock factor protein 1 (Mus musculus, UniProt P38532); assay: decrease of HSF1-responsive luciferase luminescence – cell-based, NIH3T3, dose retest, confirmation (AID 2382); format: functional;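 also: NIH3T3 fibroblasts with HSF1-driven luciferase reporter stressed by proteasome inhibitor MG132; luminescence from HSF1-driven luciferase expression after 8 hours of MG132 stress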
T4 sequence (P38532 whole entry): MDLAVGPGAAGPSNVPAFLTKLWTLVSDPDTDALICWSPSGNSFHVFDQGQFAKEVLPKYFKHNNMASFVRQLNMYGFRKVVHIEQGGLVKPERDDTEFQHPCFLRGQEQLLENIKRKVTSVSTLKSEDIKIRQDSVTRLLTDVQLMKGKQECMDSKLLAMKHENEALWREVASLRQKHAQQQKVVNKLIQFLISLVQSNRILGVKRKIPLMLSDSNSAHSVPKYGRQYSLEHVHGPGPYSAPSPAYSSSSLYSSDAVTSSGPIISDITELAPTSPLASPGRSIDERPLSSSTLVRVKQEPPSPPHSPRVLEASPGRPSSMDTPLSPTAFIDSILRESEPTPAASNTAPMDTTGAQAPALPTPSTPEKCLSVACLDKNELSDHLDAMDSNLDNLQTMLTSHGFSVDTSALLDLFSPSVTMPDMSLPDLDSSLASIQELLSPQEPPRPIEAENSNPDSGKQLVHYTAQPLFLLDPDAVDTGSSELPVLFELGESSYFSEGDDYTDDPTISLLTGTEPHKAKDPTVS

Mu-type opioid receptor = Mu-type opioid receptor (Homo sapiens, UniProt P35372); format: functional, cell-based;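 also: U2OS cells with beta-arrestin recruitment to OPRM1 by beta-gal complementation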
Vero [11] = assay: cells; format: functional, cell-based; conditions: Chlorocebus sabaeus
Vero [12] = assay: cells; format: functional; conditions: Chlorocebus sabaeus
[13] = target: T5, Microphthalmia-associated transcription factor (Homo sapiens, UniProt O75030); assay: reducers of TRPM1 reporter luminescence, concentration series – cell-based, SK-MEL-5, cherry-picked, set 3, MITF inhibitor project, dose response (AID 493073); format: functional;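 also: SK-MEL-5 melanoma cells with luciferase driven by the MITF target TRPM1 promoter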
T5 sequence (O75030 whole entry): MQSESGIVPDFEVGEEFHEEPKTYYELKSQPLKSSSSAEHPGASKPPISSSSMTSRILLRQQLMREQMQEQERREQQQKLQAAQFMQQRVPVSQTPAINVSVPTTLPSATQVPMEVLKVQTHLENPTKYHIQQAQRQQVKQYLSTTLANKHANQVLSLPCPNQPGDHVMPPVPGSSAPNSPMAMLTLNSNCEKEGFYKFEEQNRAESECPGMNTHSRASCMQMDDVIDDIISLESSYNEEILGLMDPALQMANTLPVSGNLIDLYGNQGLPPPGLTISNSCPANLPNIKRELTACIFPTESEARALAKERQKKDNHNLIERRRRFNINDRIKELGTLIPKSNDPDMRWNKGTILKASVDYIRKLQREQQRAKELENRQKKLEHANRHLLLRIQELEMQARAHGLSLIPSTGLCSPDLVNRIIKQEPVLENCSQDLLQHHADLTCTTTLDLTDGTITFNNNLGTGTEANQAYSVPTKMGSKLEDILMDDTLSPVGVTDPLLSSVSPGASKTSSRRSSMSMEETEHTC

[14] = target: T6, Serine/threonine-protein phosphatase (Candida dubliniensis (strain CD36 / CBS 7987 / NCPF 3949 / NRRLY-17841) (Yeast), UniProt B9W6M3); assay: blockers of CaCl2-induced CDRE-lacZ signaling – S. cerevisiae, luminescence, secondary, dose response (AID 2388); format: functional, cell-based;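 also: yeast reporter cells carrying a calcineurin-responsive lacZ construct stimulated with calcium chloride; luminescent beta-galactosidase reporter signal in whole cells rather than isolated phosphatase activity; potency for inhibition where a drop in reporter signal means calcineurin blockade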
T6 sequence (B9W6M3 whole entry): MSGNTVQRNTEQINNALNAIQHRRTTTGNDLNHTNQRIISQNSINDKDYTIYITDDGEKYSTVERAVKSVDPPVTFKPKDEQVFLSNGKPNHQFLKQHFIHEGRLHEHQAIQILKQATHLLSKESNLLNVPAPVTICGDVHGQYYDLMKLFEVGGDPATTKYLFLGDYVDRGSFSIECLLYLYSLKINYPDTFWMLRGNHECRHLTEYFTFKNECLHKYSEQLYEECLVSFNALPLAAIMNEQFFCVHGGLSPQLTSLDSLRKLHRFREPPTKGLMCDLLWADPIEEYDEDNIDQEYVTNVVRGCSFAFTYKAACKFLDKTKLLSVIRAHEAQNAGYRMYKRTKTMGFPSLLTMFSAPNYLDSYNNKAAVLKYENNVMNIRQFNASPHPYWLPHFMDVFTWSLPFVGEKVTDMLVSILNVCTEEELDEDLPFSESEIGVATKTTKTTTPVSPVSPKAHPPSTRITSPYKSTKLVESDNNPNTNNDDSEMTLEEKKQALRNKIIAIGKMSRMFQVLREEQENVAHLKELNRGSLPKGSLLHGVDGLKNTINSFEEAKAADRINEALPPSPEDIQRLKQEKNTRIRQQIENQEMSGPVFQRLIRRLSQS

[15] = NIH-3T3 fibroblast cytotoxicity, dose response, cytotoxicity control, cell-based, fluorescence, Alamar Blue, secondary assay (AID 2327); format: functional;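 also: NIH-3T3 mouse fibroblasts cultured with fluconazole at 8 µg/mL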
[16] = target: T7, Polyadenylate-binding protein 1 (Homo sapiens, UniProt P11940); assay: MLLE binding blockers, Cy5 peptide tracer – biochemical, fluorescence polarization, Cy5-PAM2 peptide, secondary, miRNA deadenylation inhibitor project, dose response (AID 602260); format: functional; conditions: read-out: IC50_Mean
[17] = target: T7, Polyadenylate-binding protein 1; assay: MLLE domain peptide-binding blockers, IC50 – biochemical, fluorescence polarization, FITC-PAM2 peptide, dose response (AID 602259); format: functional; conditions: read-out: IC50_Mean
[18] = target: ATP-dependent molecular chaperone HSP82 (Candida albicans (strain WO-1) (Yeast), UniProt C4YTQ8); assay: steroid-induced GRE reporter decrease in yeast – S. cerevisiae, luminescence, Hsp90 inhibitor project, dose response (AID 2400); format: functional, cell-based;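 also: beta-galactosidase luminescence from glucocorticoid response element reporter as proxy for Hsp90 function; inhibitor potency where signal loss means Hsp90 inhibition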
[19] = fluconazole-exposed Candida albicans growth modulators – fluorescence, retest, confirmation (AID 2467); format: functional, cell-based

Mu-type opioid receptor, sequence (P35372 whole entry): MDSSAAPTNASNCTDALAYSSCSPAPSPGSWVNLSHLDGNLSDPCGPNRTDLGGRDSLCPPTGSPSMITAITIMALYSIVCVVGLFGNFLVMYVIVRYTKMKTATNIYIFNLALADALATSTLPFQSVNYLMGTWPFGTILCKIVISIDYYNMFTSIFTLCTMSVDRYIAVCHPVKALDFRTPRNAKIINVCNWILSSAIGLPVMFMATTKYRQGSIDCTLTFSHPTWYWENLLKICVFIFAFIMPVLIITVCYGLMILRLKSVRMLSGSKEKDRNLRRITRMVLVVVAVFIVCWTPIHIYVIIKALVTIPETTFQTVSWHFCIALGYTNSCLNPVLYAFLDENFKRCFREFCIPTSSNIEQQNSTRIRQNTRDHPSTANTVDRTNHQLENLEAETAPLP
5-hydroxytryptamine receptor 2A, sequence (P35363 whole entry): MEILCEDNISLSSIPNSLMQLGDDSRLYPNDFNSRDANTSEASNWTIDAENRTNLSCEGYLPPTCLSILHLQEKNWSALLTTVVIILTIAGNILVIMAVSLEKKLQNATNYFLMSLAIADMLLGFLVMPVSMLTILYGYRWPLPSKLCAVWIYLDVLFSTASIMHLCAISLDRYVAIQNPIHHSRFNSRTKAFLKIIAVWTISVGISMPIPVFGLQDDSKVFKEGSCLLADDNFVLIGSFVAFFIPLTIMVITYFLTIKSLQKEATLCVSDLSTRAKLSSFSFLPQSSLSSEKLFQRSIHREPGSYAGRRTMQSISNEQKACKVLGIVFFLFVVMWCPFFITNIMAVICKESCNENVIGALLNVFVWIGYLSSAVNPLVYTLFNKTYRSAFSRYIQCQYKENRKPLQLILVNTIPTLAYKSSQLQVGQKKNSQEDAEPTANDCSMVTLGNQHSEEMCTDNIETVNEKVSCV
T3 sequence (Q79MP6 whole entry): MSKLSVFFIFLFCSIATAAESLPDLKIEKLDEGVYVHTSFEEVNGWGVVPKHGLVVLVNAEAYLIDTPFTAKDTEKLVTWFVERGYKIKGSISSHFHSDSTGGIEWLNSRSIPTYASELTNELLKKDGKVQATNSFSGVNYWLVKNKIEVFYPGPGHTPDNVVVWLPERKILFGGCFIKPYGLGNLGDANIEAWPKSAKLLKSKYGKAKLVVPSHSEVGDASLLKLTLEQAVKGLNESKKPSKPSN
SWI/SNF-related matrix-associated actin-dependent regulator of chromatin subfamily A member 2, sequence (P51531 whole entry): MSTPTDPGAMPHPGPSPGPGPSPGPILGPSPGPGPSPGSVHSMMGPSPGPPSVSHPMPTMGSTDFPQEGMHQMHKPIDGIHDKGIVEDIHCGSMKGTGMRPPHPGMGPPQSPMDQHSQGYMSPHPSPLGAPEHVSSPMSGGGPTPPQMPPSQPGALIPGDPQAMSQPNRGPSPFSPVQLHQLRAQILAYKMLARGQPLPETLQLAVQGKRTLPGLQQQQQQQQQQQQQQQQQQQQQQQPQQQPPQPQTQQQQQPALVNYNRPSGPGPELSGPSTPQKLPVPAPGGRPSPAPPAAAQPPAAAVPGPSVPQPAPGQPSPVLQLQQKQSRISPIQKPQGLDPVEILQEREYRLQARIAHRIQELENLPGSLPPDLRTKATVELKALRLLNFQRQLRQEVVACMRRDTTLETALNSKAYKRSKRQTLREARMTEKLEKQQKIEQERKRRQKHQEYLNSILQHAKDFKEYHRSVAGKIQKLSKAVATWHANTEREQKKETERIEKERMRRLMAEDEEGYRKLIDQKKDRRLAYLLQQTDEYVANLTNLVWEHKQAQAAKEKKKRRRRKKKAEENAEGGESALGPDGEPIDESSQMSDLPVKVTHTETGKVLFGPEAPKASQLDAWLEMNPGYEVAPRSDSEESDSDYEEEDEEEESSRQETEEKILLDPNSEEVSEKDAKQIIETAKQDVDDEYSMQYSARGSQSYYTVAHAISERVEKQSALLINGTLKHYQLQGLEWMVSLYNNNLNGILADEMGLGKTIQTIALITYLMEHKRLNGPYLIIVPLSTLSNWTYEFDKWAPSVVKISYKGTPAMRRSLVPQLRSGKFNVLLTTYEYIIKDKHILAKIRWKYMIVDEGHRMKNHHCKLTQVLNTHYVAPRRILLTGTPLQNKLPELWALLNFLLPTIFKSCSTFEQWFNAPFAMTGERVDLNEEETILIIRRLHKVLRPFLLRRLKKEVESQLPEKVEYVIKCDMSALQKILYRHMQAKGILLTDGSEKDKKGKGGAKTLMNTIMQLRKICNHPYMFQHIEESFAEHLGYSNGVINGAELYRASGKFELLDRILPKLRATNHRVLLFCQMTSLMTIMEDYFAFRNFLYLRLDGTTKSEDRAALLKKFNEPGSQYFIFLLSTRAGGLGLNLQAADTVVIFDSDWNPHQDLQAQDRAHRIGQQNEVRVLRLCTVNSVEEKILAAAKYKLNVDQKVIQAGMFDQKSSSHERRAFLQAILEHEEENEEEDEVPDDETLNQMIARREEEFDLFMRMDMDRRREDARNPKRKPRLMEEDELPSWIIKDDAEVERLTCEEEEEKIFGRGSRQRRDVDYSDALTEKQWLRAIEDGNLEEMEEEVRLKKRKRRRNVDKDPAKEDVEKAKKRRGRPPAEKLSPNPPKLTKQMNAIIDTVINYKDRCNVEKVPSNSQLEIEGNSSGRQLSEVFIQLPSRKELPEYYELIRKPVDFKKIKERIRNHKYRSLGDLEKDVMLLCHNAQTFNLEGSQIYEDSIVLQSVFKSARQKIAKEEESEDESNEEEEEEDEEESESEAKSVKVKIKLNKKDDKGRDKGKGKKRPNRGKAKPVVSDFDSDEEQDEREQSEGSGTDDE
T7 sequence (P11940 whole entry, the tested form may be a part): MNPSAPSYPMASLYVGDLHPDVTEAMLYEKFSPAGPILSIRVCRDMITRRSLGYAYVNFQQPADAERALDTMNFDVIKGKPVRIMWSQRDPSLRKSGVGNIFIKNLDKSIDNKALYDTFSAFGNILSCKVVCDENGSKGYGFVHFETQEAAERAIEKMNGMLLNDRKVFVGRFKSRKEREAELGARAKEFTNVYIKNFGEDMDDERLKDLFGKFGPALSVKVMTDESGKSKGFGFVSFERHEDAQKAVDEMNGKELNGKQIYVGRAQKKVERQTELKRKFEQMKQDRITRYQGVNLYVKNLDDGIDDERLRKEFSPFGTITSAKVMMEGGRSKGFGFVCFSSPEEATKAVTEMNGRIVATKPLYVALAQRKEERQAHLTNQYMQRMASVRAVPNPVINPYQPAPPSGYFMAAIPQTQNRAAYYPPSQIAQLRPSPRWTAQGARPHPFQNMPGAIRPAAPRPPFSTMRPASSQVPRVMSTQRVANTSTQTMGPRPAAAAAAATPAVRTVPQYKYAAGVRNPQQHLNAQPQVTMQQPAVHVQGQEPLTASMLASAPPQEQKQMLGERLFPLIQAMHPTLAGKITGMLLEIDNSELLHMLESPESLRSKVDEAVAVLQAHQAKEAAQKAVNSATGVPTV
Beta-lactamase (Salmonella choleraesuis (strain SC-B67), UniProt Q5J463), sequence (Q5J463 whole entry): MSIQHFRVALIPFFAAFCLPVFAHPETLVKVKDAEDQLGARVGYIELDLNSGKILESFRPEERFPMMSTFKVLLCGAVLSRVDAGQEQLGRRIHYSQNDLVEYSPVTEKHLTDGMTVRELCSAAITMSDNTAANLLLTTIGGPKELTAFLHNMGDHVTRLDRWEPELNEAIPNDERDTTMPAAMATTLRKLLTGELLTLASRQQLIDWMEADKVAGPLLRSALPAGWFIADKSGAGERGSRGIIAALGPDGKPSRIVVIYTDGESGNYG
ATP-dependent molecular chaperone HSP82, sequence (C4YTQ8 whole entry): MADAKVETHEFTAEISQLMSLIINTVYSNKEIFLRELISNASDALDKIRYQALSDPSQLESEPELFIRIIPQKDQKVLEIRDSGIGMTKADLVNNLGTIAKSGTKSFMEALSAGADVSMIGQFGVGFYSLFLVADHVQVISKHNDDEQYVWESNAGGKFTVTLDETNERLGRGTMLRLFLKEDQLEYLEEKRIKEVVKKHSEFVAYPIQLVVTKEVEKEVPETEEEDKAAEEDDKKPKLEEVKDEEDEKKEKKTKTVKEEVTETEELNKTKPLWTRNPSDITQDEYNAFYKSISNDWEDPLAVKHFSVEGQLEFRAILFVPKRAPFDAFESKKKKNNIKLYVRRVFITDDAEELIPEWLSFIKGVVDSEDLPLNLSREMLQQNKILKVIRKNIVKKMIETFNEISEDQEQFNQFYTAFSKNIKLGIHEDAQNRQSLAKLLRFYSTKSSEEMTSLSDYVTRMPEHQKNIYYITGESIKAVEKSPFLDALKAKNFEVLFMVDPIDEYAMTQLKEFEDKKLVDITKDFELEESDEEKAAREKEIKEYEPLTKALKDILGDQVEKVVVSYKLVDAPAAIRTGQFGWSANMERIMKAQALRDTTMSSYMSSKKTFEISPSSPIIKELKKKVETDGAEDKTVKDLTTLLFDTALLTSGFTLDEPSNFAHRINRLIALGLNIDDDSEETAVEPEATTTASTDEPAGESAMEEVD
Paired box protein Pax-8, sequence (Q06710 whole entry): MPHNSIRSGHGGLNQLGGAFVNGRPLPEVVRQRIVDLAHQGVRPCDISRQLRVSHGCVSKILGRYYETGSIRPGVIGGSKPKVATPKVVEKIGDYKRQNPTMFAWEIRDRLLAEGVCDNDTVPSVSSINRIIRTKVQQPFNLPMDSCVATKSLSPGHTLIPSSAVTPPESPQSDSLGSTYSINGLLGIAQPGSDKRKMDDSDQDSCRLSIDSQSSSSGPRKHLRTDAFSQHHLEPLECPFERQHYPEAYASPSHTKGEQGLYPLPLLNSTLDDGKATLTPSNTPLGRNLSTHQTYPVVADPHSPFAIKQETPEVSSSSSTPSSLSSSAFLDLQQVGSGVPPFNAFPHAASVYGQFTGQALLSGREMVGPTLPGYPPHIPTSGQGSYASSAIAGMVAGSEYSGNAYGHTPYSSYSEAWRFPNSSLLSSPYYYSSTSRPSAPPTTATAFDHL

## COc1cc2c[n+](C)c3c4ccccc4ccc3c2cc1OC
[1]
  CC50: 66 µM (active)
[2]
  IC50: 60.5 µM (active)
[3]
  EC50: > 91.1 µM (inactive)
[4]
  AC50: 0.36 µM (active)
[5]
  EC50: > 91.1 µM (inactive)

## O=C(O)C(NC(=O)c1ccccc1)=C(Cl)Cl
Beta-lactamase [6]
  IC50: > 59.6 µM (inactive)
Beta-lactamase [7]
  IC50: > 59.6 µM (inactive)
Beta-lactamase [8]
  IC50: > 59.6 µM (inactive)

## CC(C)=CCNc1ncnc2c1c(C#N)cn2C1OC(CO)C(O)C1O (stereo unspecified)
Paired box protein Pax-8
  AC50: 3.79 µM (active)
[3]
  EC50: > 91.1 µM (inactive)
[5]
  EC50: > 91.1 µM (inactive)

## c1ccc(COc2cccc(CN3CCN(c4ccccn4)CC3)c2)cc1
[9]
  EC50: 0.022 µM (active)
[10]
  EC50: > 195 µM (not active)
Mu-type opioid receptor
  EC50: 92.5 µM (inactive)

## CC(C)C(CCNC1CCN(C)CC1)c1ccc(Cl)cc1 (stereo unspecified)
Vero [11]
  IC50: > 25 µM (active)
Vero [12]
  CC50: 20.4 µM (active)
[13]
  AC50: 11.9 µM (active)

## O=C(NCc1ccco1)c1sc(=S)n2c1[nH]c(=O)c1ccccc12
[14]
  EC50: > 180 µM (inactive)
[15]
  EC50: > 160 µM (inactive)
[2]
  IC50: 75.6 µM (active)
[16]
  IC50: > 66 µM (inactive)
[17]
  IC50: > 66 µM (inactive)
[18]
  EC50: > 160 µM (inactive)
[19]
  EC50: 0.837 µM (active)

## CCOc1ccc(NC(=O)CCN2CCN(c3ccccc3F)CC2)cc1
[9]
  EC50: 0.0925 µM (active)
Mu-type opioid receptor
  EC50: 92.6 µM (inactive)

From ChEMBL document CHEMBL1201862, “PubChem BioAssay data set” (2004)
